Target: T1, ASK1 (Homo sapiens, UniProt Q99683)
T1 construct: purchased Thermofisher PV4011
T1 sequence (Q99683 1-1374): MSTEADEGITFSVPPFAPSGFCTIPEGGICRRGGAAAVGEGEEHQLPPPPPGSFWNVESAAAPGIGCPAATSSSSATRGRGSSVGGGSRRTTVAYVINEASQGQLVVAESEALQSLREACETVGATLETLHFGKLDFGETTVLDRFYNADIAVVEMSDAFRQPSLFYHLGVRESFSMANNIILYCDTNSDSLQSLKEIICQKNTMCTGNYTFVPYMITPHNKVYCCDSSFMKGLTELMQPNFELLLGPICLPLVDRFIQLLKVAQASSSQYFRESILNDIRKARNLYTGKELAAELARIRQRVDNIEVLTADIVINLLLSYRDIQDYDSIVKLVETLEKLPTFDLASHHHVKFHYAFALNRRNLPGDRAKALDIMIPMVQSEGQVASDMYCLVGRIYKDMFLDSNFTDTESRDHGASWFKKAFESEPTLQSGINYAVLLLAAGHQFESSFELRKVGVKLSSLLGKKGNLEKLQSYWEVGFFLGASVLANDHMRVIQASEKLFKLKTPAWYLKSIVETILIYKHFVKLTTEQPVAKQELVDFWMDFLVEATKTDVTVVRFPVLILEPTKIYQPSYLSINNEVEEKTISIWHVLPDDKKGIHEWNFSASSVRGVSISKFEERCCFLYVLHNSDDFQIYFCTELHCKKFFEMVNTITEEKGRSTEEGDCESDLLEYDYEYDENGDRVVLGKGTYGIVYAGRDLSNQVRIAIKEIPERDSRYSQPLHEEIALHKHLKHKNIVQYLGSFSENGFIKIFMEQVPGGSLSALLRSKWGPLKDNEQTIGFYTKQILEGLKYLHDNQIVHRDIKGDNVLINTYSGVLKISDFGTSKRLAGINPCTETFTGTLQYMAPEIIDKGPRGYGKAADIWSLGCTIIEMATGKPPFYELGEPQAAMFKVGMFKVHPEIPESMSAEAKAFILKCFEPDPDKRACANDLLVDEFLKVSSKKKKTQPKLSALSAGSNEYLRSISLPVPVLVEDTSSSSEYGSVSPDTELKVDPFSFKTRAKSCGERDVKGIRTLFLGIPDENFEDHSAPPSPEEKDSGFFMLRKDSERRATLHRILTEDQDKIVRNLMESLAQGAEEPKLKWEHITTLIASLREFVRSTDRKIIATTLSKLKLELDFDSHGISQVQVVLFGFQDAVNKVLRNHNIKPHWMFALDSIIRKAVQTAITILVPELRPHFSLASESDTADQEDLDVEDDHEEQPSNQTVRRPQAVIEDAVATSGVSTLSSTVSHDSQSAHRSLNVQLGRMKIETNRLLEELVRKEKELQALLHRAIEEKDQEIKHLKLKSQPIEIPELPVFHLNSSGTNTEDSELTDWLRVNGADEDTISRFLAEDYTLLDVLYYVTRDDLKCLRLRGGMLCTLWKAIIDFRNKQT
Experiment: HTRF KinEASE-STK TR-FRET kinase assay, inhibition of ASK1
Type: biochemical
Conditions: 5 nM ASK1, 1 uM STK3 peptide substrate, 100 uM ATP
Method: ASK1 was purchased from Thermofisher (Catalogue # PV4011), ATP was purchased from Sigma (Catalogue # A7699), HTRF® KinEASE™ Assay System was obtained from Cisbio (Bedford, Mass.). ½ Area plate was purchased from Perkin Elmer (Catalogue # #6005560). HTRF® KinEASE™-STK is a generic method for measuring serine/threonine kinase activities using a time-resolved fluorescence resonance energy transfer (TR-FRET) immunoassay. The IC50 value for each compound was determined in the presence of compound (various concentration from 0 to 10 μM) and a fixed amount of ATP and peptide substrates. The test compound, 1 uM STK3 peptide substrate, and 5 nM of ASK1 kinase are incubated with kinase reaction buffer containing 50 mM HEPES pH 7.5, 0.01% BRIJ-35, 10 mM MgCl2, and 1 mM EGTA for 30 minutes. 100 uM ATP is added to start kinase reaction and incubated for 3 hours. The STK3-antibody labeled with Eu^3+-Cryptate and 125 nM streptavidin-XL665 are mixed in a single addition with stop reagents provided by the Cisbio kit used to stop the kinase reaction. Fluorescence is detected using an Envision Multilabeled 2014 reader from PerkinElmer. The Fluorescence is measured at 615 nm (Cryptate) and 665 nm (XL665) and a ratio of 665 nm/615 nm is calculated for each well. The resulting TR-FRET is proportional to the phosphorylation level. Staurosporine was used as the positive control. IC50 was determined by XLfit 5.3.

CC(C)n1cnnc1-c1cccc(NC(=O)c2ccc3nc(N4CCOCC4)sc3c2)n1 [Example 61]
IC50: 10 to 100 nM

CC(C)N(c1nc2ccc(C(=O)Nc3cccc(-c4nncn4C(C)C)n3)cc2s1)C(C)C [Example 53, 2-(diisopropylamino)-N-(6-(4-isopropyl-4H-1,2,4-triazol-3-yl)pyridin-2-yl)benzo[d]thiazole-6-carboxamide]
IC50: 10 to 100 nM

CCN(CC)c1nc2cc(F)c(C(=O)Nc3cccc(-c4nnnn4C(C)C)n3)cc2s1 [Example 35]
IC50: > 1000 nM

CC(C)n1cnnc1-c1cccc(NC(=O)c2ccc3nc(NC4CCCCC4)sc3c2)n1 [Example 24]
IC50: 10 to 100 nM

CC(C)n1cnnc1-c1cccc(NC(=O)c2ccc3nc(N4CCC(C)(C)CC4)sc3c2)n1 [Example 54]
IC50: > 1000 nM

CCCCN(C)c1nc2cc(F)c(C(=O)Nc3cccc(-c4nnnn4C(C)C)n3)cc2s1 [Example 43]
IC50: > 1000 nM

CC(C)n1cnnc1-c1cccc(NC(=O)c2cc3sc(N(C)C)nc3cn2)n1 [Example 64]
IC50: 10 to 100 nM

CC(C)n1cnnc1-c1cccc(NC(=O)c2ccc3nc(N4CC5(COC5)C4)sc3c2)n1 [Example 18]
IC50: 10 to 100 nM

CNc1nc2cc(F)c(C(=O)Nc3cccc(-c4nnnn4C(C)C)n3)cc2s1 [Example 33]
IC50: > 1000 nM

CC(C)n1cnnc1-c1cccc(NC(=O)c2cc3sc(C4CC4)nc3cc2F)n1 [Example 7, 2-cyclopropyl-5-fluoro-N-(6-(4-isopropyl-4H-1,2,4-triazol-3-yl)pyridin-2-yl)benzo[d]thiazole-6-carboxamide]
IC50: 10 to 100 nM

CC(C)n1nnnc1-c1cccc(NC(=O)c2cc3sc(N(C)C4CCCCC4)nc3cc2F)n1 [Example 44]
IC50: > 1000 nM

CC(C)n1cnnc1-c1cccc(NC(=O)c2ccc3nc(N4CCN(C(C)(C)C)CC4)sc3c2)n1 [Example 59]
IC50: 10 to 100 nM

CC(C)n1cnnc1-c1cccc(NC(=O)c2ccc3nc(N4CC5CC5C4)sc3c2)n1 (stereo not drawn) [Example 52]
IC50: 10 to 100 nM

CC(C)n1nnnc1-c1cccc(NC(=O)c2cc3sc(N4CCC4)nc3cc2F)n1 [Example 45]
IC50: > 1000 nM

CC(C)Nc1nc2ccc(C(=O)Nc3cccc(-c4nncn4C(C)C)n3)cc2s1 [Example 56]
IC50: 100 to 1000 nM

CC(C)n1cnnc1-c1cccc(NC(=O)c2ccc3nc(-c4ccc(C(C)(C)C)cc4)sc3c2)n1 [Example 58, 2-(4-(tert-butyl)phenyl)-N-(6-(4-isopropyl-4H-1,2,4-triazol-3-yl)pyridin-2-yl)benzo[d]thiazole-6-carboxamide]
IC50: > 1000 nM

CC(C)n1cnnc1-c1cccc(NC(=O)c2cc3sc(N4CCN(C5CC5)CC4)nc3cc2F)n1 [Example 12]
IC50: 1 to 10 nM

CC(C)n1cnnc1-c1cccc(NC(=O)c2cc3sc(N4CCN(C(C)(C)C)CC4)nc3cn2)n1 [Example 74]
IC50: 10 to 100 nM

CC(C)n1cnnc1-c1cccc(NC(=O)c2cc3sc(N4CCC(C(C)(C)C)CC4)nc3cn2)n1 [Example 73]
IC50: > 1000 nM

CC(C)n1nnnc1-c1cccc(NC(=O)c2cc3sc(N4CCOCC4)nc3cn2)n1 [Example 72]
IC50: > 1000 nM

CC(C)n1nnnc1-c1cccc(NC(=O)c2cc3sc(N(C)C)nc3cn2)n1 [Example 75]
IC50: 10 to 100 nM

CC(C)n1nnnc1-c1cccc(NC(=O)c2cc3sc(NC4CC4)nc3cc2F)n1 [Example 38]
IC50: > 1000 nM

CC(C)n1nnnc1-c1cccc(NC(=O)c2cc3sc(N4CCOCC4)nc3cc2F)n1 [Example 46]
IC50: 10 to 100 nM

CCCCNc1nc2cc(F)c(C(=O)Nc3cccc(-c4nnnn4C(C)C)n3)cc2s1 [Example 40]
IC50: > 1000 nM

CC(C)n1cnnc1-c1cccc(NC(=O)c2cc3sc(N(C)C)nc3cc2F)n1 [Example 14]
IC50: 1 to 10 nM

CC(C)n1nnnc1-c1cccc(NC(=O)c2cc3sc(C4CC4)nc3cc2F)n1 [Example 31]
IC50: > 1000 nM

CC(C)n1nnnc1-c1cccc(NC(=O)c2cc3sc(N4CCCCC4)nc3cc2F)n1 [Example 4]
IC50: > 1000 nM

CC(C)n1nnnc1-c1cccc(NC(=O)c2cc3sc(C4CCC4)nc3cc2F)n1 [Example 36]
IC50: 100 to 1000 nM

CC(C)n1cnnc1-c1cccc(NC(=O)c2ccc3nc(-c4ccccc4)sc3c2)n1 [Example 22]
IC50: 100 to 1000 nM

CC(C)n1cnnc1-c1cccc(NC(=O)c2cc3sc(N4CCC4)nc3cc2F)n1 [Example 28]
IC50: 1 to 10 nM

CC(C)n1cnnc1-c1cccc(NC(=O)c2cc3sc(N4CCOCC4)nc3cn2)n1 [Example 65]
IC50: 1 to 10 nM

CC(C)n1nnnc1-c1cccc(NC(=O)c2cc3sc(C4CC4)nc3cn2)n1 [Example 70]
IC50: > 1000 nM

CC(C)n1cnnc1-c1cccc(NC(=O)c2cc3sc(C4CCC4)nc3cn2)n1 [Example 67]
IC50: 10 to 100 nM

CCN(CC)c1nc2ccc(C(=O)Nc3cccc(-c4nncn4C(C)C)n3)cc2s1 [Example 57]
IC50: 10 to 100 nM

CC(C)n1nnnc1-c1cccc(NC(=O)c2cc3sc(N4CCN(C5CC5)CC4)nc3cc2F)n1 [Example 42]
IC50: > 1000 nM

CC(C)n1nnnc1-c1cccc(NC(=O)c2cc3sc(N4CCC(C(C)(C)C)CC4)nc3cn2)n1 [Example 68]
IC50: > 1000 nM

CC(C)n1cnnc1-c1cccc(NC(=O)c2ccc3ncn(C)c3c2)n1 [Example 1, N-(6-(4-isopropyl-4H-1,2,4-triazol-3-yl)pyridin-2-yl)-1-methyl-1H-benzo[d]imidazole-6-carboxamide]
IC50: 100 to 1000 nM

CC(C)n1nnnc1-c1cccc(NC(=O)c2cc3sc(N4CCC(C(C)(C)C)CC4)nc3cc2F)n1 [Example 41]
IC50: > 1000 nM

CC(C)n1cnnc1-c1cccc(NC(=O)c2cc3sc(NC4CC4)nc3cc2F)n1 [Example 6, 2-(cyclopropylamino)-5-fluoro-N-(6-(4-isopropyl-4H-1,2,4-triazol-3-yl)pyridin-2-yl)benzo[d]thiazole-6-carboxamide]
IC50: 1 to 10 nM

CC(C)n1cnnc1-c1cccc(NC(=O)c2ccc3nc(N4C5CCCC4CC5)sc3c2)n1 [Example 51]
IC50: 10 to 100 nM

CC(C)n1cnnc1-c1cccc(NC(=O)c2ccc3nc(N4CCC(C(C)(C)C)CC4)sc3c2)n1 [Example 25]
IC50: 100 to 1000 nM

CC(C)n1cnnc1-c1cccc(NC(=O)c2ccc3nc(N4CCCCC4)sc3c2)n1 [Example 60, N-(6-(4-isopropyl-4H-1,2,4-triazol-3-yl)pyridin-2-yl)-2-(piperidin-1-yl)benzo[d]thiazole-6-carboxamide]
IC50: 10 to 100 nM

CC(C)n1nnnc1-c1cccc(NC(=O)c2cc3sc(N4CCCC4)nc3cc2F)n1 [Example 47]
IC50: > 1000 nM

CCCCN(C)c1nc2cc(F)c(C(=O)Nc3cccc(-c4nncn4C(C)C)n3)cc2s1 [Example 9]
IC50: 1 to 10 nM

CC(C)n1cnnc1-c1cccc(NC(=O)c2cc3sc(N4CCCCC4)nc3cc2F)n1 [Example 30, 5-fluoro-N-(6-(4-isopropyl-4H-1,2,4-triazol-3-yl)pyridin-2-yl)-2-(piperidin-1-yl)benzo[d]thiazole-6-carboxamide]
IC50: 1 to 10 nM

CC(C)n1cnnc1-c1cccc(NC(=O)c2cc3sc(N4CCC(C(C)(C)C)CC4)nc3cc2F)n1 [Example 29]
IC50: 10 to 100 nM

CC(C)n1cnnc1-c1cccc(NC(=O)c2ccc3nc(N4CC5CCC(C4)O5)sc3c2)n1 [Example 17]
IC50: 10 to 100 nM

CC(C)n1cnnc1-c1cccc(NC(=O)c2cc3sc(N(C)C4CC4)nc3cc2F)n1 [Example 10]
IC50: 1 to 10 nM

Source: patent publication US10246439B2, “Apoptosis signal-regulating kinase 1 inhibitors and methods of use thereof” (ENANTA PHARMACEUTICALS, INC., priority 2017, dated 2019)
